In series [1] the test system is MDA-MB-231. Briefly: Antiproliferative activity against human MDA-MB-231 cells after 4 days by XTT assay. It counts as functional, cell-based. The settings on record: MDA-MB-231, 96 h.
For series [2], the system named is MDA-MB-231. The experiment in a line: Antiproliferative activity against human MDA-MB-231 cells after 4 days by XTT assay in presence of Escherichia coli beta-glucuronidase. It counts as functional, cell-based. The settings on record: MDA-MB-231, 96 h.
Series [3] is described as follows: Prodrug conversion in phosphate buffer at pH 7 assessed as MMAE and 4-hydroxy-3-nitrobenzyl alcohol formation after 40 mins by HPLC method in presence of Escherichia coli beta-glucuronidase. The settings on record: pH 7, 40 min. It counts as physicochemical.
For series [4], the system named is Mus musculus. Briefly: Toxicity in mouse LLC cells allografted C57/BL6 mouse model assessed as change in body weight at 0.5 mg/kg, iv administered on day 7, 11 and 14 post transplantation measured on day 20. The series is classed as organism-based. Also on record: dose 0.5 mg/kg, route intravenous. The settings on record: in vivo.
Series [5] has as its system Cancer cell lines. Briefly: Cytotoxicity against human non-small cell lung cancer cells at 0.5 to 1 nM after 4 days by XTT assay. It counts as functional, cell-based.
Series [6] concerns KB. The experiment in a line: Antiproliferative activity against human KB cells after 4 days by XTT assay in presence of Escherichia coli beta-glucuronidase. The series is classed as functional, cell-based. The settings on record: 96 h.
The subject of series [7] is Serum. The experiment in a line: Stability in bovine serum at 0.5 mg after 48 hrs by HPLC method. It counts as ADME, cell-free, Bos taurus. Particulars: cattle.
Series [8] deals with MDA-MB-231. The experiment in a line: Ratio of IC50 for human MDA-MB-231 cells to IC50 for human MDA-MB-231 cells in presence of Escherichia coli beta-glucuronidase. The series is classed as functional.
A short description of series [9]: Cytotoxicity against human non-small cell lung cancer cells at 1 nM after 4 days by XTT assay in presence of Escherichia coli beta-glucuronidase. The series is classed as functional, Cancer cell lines.
The test system of series [10] is Lewis lung carcinoma cell line. The experiment in a line: Antitumor activity against mouse LLC cells allografted in C57/BL6 mouse assessed as reduction in tumor weight at 0.5 mg/kg, iv administered on day 7, 11 and 14 post transplantation measured on day 20 relative to control. The series is classed as functional.
Series [11] relates to A549. The experiment in a line: Ratio of IC50 for human A549 cells to IC50 for human A549 cells in presence of Escherichia coli beta-glucuronidase. The series is classed as functional.
The test system of series [12] is A549. Briefly: Antiproliferative activity against human A549 cells after 4 days by XTT assay. Particulars: A549, 96 h. The series is classed as functional, cell-based.
For series [13], the system named is A549. The experiment in a line: Antiproliferative activity against human A549 cells after 4 days by XTT assay in presence of Escherichia coli beta-glucuronidase. The settings on record: A549, 96 h. The series is classed as functional, cell-based.
The subject of series [14] is KB. The experiment in a line: Ratio of IC50 for human KB cells to IC50 for human KB cells in presence of Escherichia coli beta-glucuronidase. It counts as functional.
In series [15] the test system is KB. The experiment in a line: Antiproliferative activity against human KB cells after 4 days by XTT assay. It counts as functional, cell-based. Particulars: 96 h.
For series [16], the system named is Lewis lung carcinoma cell line. The experiment in a line: Antitumor activity against mouse LLC cells allografted in C57/BL6 mouse assessed as reduction in tumor weight at 0.1 mg/kg, iv administered on day 7, 11 and 14 post transplantation measured on day 20 relative to control. It counts as functional.

The source made the active and inactive calls. The rule behind the calls is not given here. Non-standard residues stand in square brackets, D forms with d. Residues, ends and D or L forms follow the SMILES beside them. *: point of attachment. Dolaproine = CO[C@@H]([C@@H]1CCCN1)[C@@H](C)C(=O)O; Dil = CC[C@H](C)[C@H](NC)[C@@H](CC(=O)O)OC; X1 = C[C@@H](N*)[C@@H](O)c1ccccc1; NMeV = CN[C@H](C(=O)O)C(C)C

From ChEMBL document CHEMBL2417433, “Synthesis and biological evaluations of a monomethylauristatin E glucuronide prodrug for selective cancer chemotherapy” (Eur J Med Chem, 2013) come the findings set out here.

Consider `CC[C@H](C)[C@@H]([C@@H](CC(=O)N1CCC[C@H]1[C@H](OC)[C@@H](C)C(=O)N[C@H](C)[C@@H](O)c1ccccc1)OC)N(C)C(=O)[C@@H](NC(=O)[C@H](C(C)C)N(C)C(=O)OCc1ccc(O[C@@H]2O[C@H](C(=O)O)[C@@H](O)[C@H](O)[C@H]2O)c([N+](=O)[O-])c1)C(C)C`, for which the IC50 was determined as 20.9 nM in series [1]; 0.22 nM in [2]; 0.16 nM in [6]; 23.7 nM in series [12]; 0.52 nM in [13]; 20.8 nM in series [15]. Further, the Drug metabolism result in [3] is on record as “Active”. In addition, the results for the Activity entry in series [4] and in series [9] were “Non-toxic” and 75%, respectively. The outcome in [5] was inactive. In addition, the Stability result in [7] was “Stable”. Also, the “Ratio IC50” value in series [8], in series [11] and in series [14] was 40 in each case. Further, the “fold change (FC)” value in series [10] was determined as 1.5.
Turning to `CC[C@H](C)[C@@H]([C@@H](CC(=O)N1CCC[C@H]1[C@H](OC)[C@@H](C)C(=O)N[C@H](C)[C@@H](O)c1ccccc1)OC)N(C)C(=O)[C@@H](NC(=O)[C@@H](NC)C(C)C)C(C)C` (H-[NMeV]V[Dil][Dolaproine]-X1), the IC50 is 0.25 nM in [1], 0.59 nM in series [12] and 0.19 nM in series [15]. Further, in [5], the result was Active. The “fold change (FC)” value in [16] came to 1.5.
